# How the values were obtained:
# Assay type in all cases: biochemical
# human Mer = target: T1, human Mer (Homo sapiens, UniProt Q12866); assay: Kinase enzymatic activity assay (33P-radiolabeled phosphate transfer), Mer; details: recombinant human Mer (578-872), poly(4:1 glu:tyr) substrate, 30 minutes
# T1 construct: GST (N); made in house; host or cells: Sf9 insect cells (baculovirus)
# T1 sequence (Q12866 578-872): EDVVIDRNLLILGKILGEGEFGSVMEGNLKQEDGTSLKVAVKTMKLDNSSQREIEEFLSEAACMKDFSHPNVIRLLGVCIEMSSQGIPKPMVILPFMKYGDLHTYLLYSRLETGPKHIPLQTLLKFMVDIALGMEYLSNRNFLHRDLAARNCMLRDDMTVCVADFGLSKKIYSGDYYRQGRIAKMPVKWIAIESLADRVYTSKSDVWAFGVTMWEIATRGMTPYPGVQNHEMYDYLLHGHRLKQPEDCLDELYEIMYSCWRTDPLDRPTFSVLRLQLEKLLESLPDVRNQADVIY
# Excerpt: (§1) The identification of compounds of the invention as Tyro3, Axl or Mer inhibitors was readily accomplished using the recombinant human Tyro3, Axl and Mer proteins and employing the ^33P-radiolabeled phosphate transfer assay for which the procedure is known to someone skilled in the art or as described in Example 9.
# (§2) Recombinant human Tyro3 (455-end, the gene accession number NM_006293), human Axl (473-end, the gene accession number NM_021913) and human Mer (578-872, the gene accession number NM_006343) were independently expressed by baculovirus in Sf9 insect cells using an N-terminal GST tag. The recombinant proteins were stored at −70° C. in a medium containing 50 mM Tris-HCl, pH 7.5, 150 mM NaCl, 10 mM glutathione, 0.1 mM EDTA, 0.25 mM DTT, 0.1 mM PMSF and 25% glycerol. The recombinant proteins were aliquoted into smaller quantities after centrifugation to avoid repeated handling and multiple freeze/thaw cycles for the most favorable performance.
# (§3) Kinase Assay Buffer: This buffer solution consisted of the following components: 25 mM MOPS, pH 7.2, 12.5 mM β-glycerol-phosphate, 25 mM MgCl2, 5 mM EGTA, 2 mM EDTA and DTT 0.25 mM which was added prior to use.
# (§4) Kinase Dilution Buffer: Kinase Assay Buffer was diluted at a 1:4 ratio (5× dilution) with distilled water.
# (§5) [^33P]-ATP assay cocktail: In a designated radioactive working area, a 250 μM [^33P]-ATP assay cocktail was prepared by the addition of the following components: 150 μL of 10 mM ATP stock solution, 100 μL [^33P]-ATP (1 mci/100 μL), and 5.75 mL of kinase assay buffer. This solution was stored in 1 mL aliquots at −20° C.
# (§6) ATP stock solution (10 mM): The ATP stock solution was prepared by dissolving 55 mg of ATP in 10 mL of kinase assay buffer. It was stored in 200 μL aliquots at −20° C.
# (§7) Active Kinase Stock Solution: The active recombinant kinase protein (0.1 μg/μL) was diluted with Kinase Dilution Buffer and the activity was assayed using a serial dilution method. The specific activity is expressed in nmoL/min/mg.
# (§8) Substrates: poly(4:1 glu:tyr) is the substrate used for each kinase Tyro3, Axl and Mer: The peptide substrate was dissolved in water to give the final concentration of 1 mg/mL.
# (§9) Test compound solution: Test compound was dissolved in DMSO to obtain a 10 mM solution. The assay solution was prepared by adding 5 μL of this solution to […] of 10% DMSO/water to obtain the final concentration of 50 μM.
# (§10) The enzymatic activity of all three kinases was determined as follows. Using a 96-well plate, the wells were divided into three categories: Blank wells, […] and Test wells. In Test wells, 5 μL of the test compound solution and 5 μL of the substrate solution were added. In Control wells, 5 μL of 10% DMSO/water and 5 μL of the substrate solution were added. In Blank wells, 10 μL of 10% DMSO/water was added. To each well was added 10 μL of Active Kinase Stock Solution to make up the volume in each well to 20 μL. All test samples, controls and blanks were run in duplicate. The reaction was initiated by the addition of 5 μL of [^33P]-ATP assay cocktail, bringing the final volume up to 25 μL in every well. The mixture was incubated at room temperature for 30 minutes. The reaction was terminated by transferring 10 μL of the reaction mixture into a Millipore MultiScreen filter plate (cat. number MSPHN6B50). The filter plate was washed in a 1% phosphoric acid solution with constant gentle shaking for 15 minutes and this step was repeated once. After the plate was dried in air, scintillation fluid was added to each well and the radioactivity in each well in CPM was counted by a Microbeta TriLux. The corrected CPM in each test well was determined by subtracting the average value of Blank well values. Percentage of inhibition of the kinase enzymatic activity by the test compound was determined using the following formula: […]
# (§11) The IC50 values were determined in a similar way following a serial dilution of the test compound. […]
# human Axl = target: T2, human Axl (Homo sapiens, UniProt P30530); assay: Kinase enzymatic activity assay (33P-radiolabeled phosphate transfer), Axl; details: recombinant human Axl (473-end), poly(4:1 glu:tyr) substrate, 30 minutes
# T2 construct: GST (N); made in house; host or cells: Sf9 insect cells (baculovirus)
# T2 sequence (P30530 473-894 limits assumed): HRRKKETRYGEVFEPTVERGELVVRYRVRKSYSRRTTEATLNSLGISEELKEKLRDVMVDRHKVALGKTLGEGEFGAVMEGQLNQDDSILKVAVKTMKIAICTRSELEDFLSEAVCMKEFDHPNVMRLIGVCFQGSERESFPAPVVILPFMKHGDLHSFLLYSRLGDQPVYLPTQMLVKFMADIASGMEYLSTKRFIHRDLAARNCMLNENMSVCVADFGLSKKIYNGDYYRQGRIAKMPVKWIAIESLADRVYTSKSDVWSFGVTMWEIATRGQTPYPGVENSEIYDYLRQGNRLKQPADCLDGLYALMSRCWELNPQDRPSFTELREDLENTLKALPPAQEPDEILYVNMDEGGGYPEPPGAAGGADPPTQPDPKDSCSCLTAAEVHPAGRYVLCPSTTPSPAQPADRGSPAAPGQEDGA
# Excerpt: as §1, §2, §3, §4, §5, §6, §7, §8, §9, §10, §11
# human Tyro3 = target: T3, human Tyro3 (Homo sapiens, UniProt Q06418); assay: Kinase enzymatic activity assay (33P-radiolabeled phosphate transfer), Tyro3; details: recombinant human Tyro3 (455-end), poly(4:1 glu:tyr) substrate, 30 minutes
# T3 construct: GST (N); made in house; host or cells: Sf9 insect cells (baculovirus)
# T3 sequence (Q06418 455-890 limits assumed): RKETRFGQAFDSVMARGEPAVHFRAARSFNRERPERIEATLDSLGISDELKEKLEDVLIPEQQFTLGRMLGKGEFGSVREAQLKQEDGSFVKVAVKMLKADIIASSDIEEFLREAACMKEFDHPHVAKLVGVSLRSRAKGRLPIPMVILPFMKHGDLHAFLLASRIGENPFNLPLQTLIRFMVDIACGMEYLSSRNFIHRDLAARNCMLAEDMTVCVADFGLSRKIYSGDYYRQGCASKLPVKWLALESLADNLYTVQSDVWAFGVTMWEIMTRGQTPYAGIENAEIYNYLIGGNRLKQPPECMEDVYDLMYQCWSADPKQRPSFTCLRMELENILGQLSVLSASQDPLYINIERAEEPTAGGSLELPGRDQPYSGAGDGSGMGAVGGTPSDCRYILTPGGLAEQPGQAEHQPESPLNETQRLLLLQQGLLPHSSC
# Excerpt: as §1, §2, §3, §4, §5, §6, §7, §8, §9, §10, §11
IC50 (human Mer),IC50 (human Axl),IC50 (human Tyro3),SMILES
> 10000 nM,1000 to 10000 nM,> 10000 nM,"COCCN1CCN(c2cc(OC3CCOCC3)c3c(Nc4nc(C(F)(F)F)cs4)ncnc3c2)CC1 [Example 2.41, N-(7-(4-(2-methoxyethyl)piperazin-1-yl)-5-((tetrahydro-2H-pyran-4-yl)oxy)quinazolin-4-yl)-4-(trifluoromethyl)thiazol-2-amine]"
> 10000 nM,1000 to 10000 nM,> 10000 nM,"CN1CCN(CCOc2cc(OC3CCOCC3)c3c(Oc4cccc(C(=O)NCc5ccccc5)c4)ncnc3c2)CC1 [Example 2.32, N-benzyl-3-((7-(2-(4-methylpiperazin-1-yl)ethoxy)-5-((tetrahydro-2H-pyran-4-yl)oxy)quinazolin-4-yl)oxy)benzamide]"
> 10000 nM,> 10000 nM,1000 to 10000 nM,"COC(=O)c1cccc(Oc2ncnc3cc(OCCCN4CCOCC4)cc(OC)c23)c1 [Example 2.26, methyl 3-((5-methoxy-7-(3-morpholinopropoxy)quinazolin-4-yl)oxy)benzoate]"
500 to 1000 nM,500 to 1000 nM,1000 to 10000 nM,"CN1CCN(CCOc2cc(OC3CCOCC3)c3c(OC4CCCCC4)ncnc3c2)CC1 [Example 3.4, 4-(cyclohexyloxy)-7-(2-(4-methylpiperazin-1-yl)ethoxy)-5-((tetrahydro-2H-pyran-4-yl)oxy)quinazoline]"
> 10000 nM,> 10000 nM,1000 to 10000 nM,"COc1cc(OCCCN2CCOCC2)cc2ncnc(Oc3cccc(CC(=O)NCc4ccccc4)c3)c12 [Example 2.29, N-benzyl-2-(3-((5-methoxy-7-(3-morpholinopropoxy)quinazolin-4-yl)oxy)phenyl)acetamide]"
1000 to 10000 nM,< 500 nM,> 10000 nM,"CN(C)CCCOc1cc(OC2CCOCC2)c2c(Nc3nc(C(F)(F)F)cs3)ncnc2c1 [Example 2.54, N-(7-(3-(dimethylamino)propoxy)-5-((tetrahydro-2H-pyran-4-yl)oxy)quinazolin-4-yl)-4-(trifluoromethyl)thiazol-2-amine]"
1000 to 10000 nM,500 to 1000 nM,> 10000 nM,"CN1CCC(COc2cc(OC3CCOCC3)c3c(Sc4nc(C(F)(F)F)cs4)ncnc3c2)CC1 [Example 2.50, 2-((7-((1-methylpiperidin-4-yl)methoxy)-5-((tetrahydro-2H-pyran-4-yl)oxy)quinazolin-4-yl)thio)-4-(trifluoromethyl)thiazole]"
1000 to 10000 nM,1000 to 10000 nM,> 10000 nM,"Cc1cc(Nc2ncnc3cc(OCCCN4CCOCC4)cc(OC4CCOCC4)c23)on1 [Example 2.35, 3-methyl-N-(7-(3-morpholinopropoxy)-5-((tetrahydro-2H-pyran-4-yl)oxy)quinazolin-4-yl)isoxazol-5-amine]"
500 to 1000 nM,500 to 1000 nM,< 500 nM,"CN1CCC(COc2cc(OC3CCOCC3)c3c(Oc4cccc(C(F)(F)F)c4)ncnc3c2)CC1 [Example 4.10, 7-((1-methylpiperidin-4-yl)methoxy)-5-((tetrahydro-2H-pyran-4-yl)oxy)-4-(3-(trifluoromethyl)phenoxy)quinazoline]"
1000 to 10000 nM,< 500 nM,< 500 nM,"CN1CCN(CCOc2cc(OC3CCOCC3)c3c(Oc4ccccc4)ncnc3c2)CC1 [Example 3.2, 7-(2-(4-methylpiperazin-1-yl)ethoxy)-4-phenoxy-5-((tetrahydro-2H-pyran-4-yl)oxy)quinazoline]"
< 500 nM,< 500 nM,1000 to 10000 nM,"CN1CCN(CCOc2cc(OC3CCOCC3)c3c(Nc4nccs4)ncnc3c2)CC1 [Example 2.14, N-(7-(2-(4-methylpiperazin-1-yl)ethoxy)-5-((tetrahydro-2H-pyran-4-yl)oxy)quinazolin-4-yl)thiazol-2-amine]"
> 10000 nM,1000 to 10000 nM,> 10000 nM,"COc1cc(N2CCOCC2)cc2ncnc(Nc3nc(C(F)(F)F)cs3)c12 [Example 2.24, N-(5-methoxy-7-morpholinoquinazolin-4-yl)-4-(trifluoromethyl)thiazol-2-amine]"
1000 to 10000 nM,1000 to 10000 nM,> 10000 nM,"Cc1nnc(Nc2ncnc3cc(OCCCN4CCOCC4)cc(OC4CCOCC4)c23)s1 [Example 2.20, 5-methyl-N-(7-(3-morpholinopropoxy)-5-((tetrahydro-2H-pyran-4-yl)oxy)quinazolin-4-yl)-1,3,4-thiadiazol-2-amine]"
> 10000 nM,500 to 1000 nM,> 10000 nM,"COc1cc(N2CCN(C)CC2)cc2ncnc(Nc3nc(C(F)(F)F)cs3)c12 [Example 2.25, N-(5-methoxy-7-(4-methylpiperazin-1-yl)quinazolin-4-yl)-4-(trifluoromethyl)thiazol-2-amine]"
> 10000 nM,> 10000 nM,500 to 1000 nM,"COCCOc1cc(OCCN2CCN(C)CC2)cc2ncnc(Sc3ccc(F)cc3)c12 [Example 4.1, 4-((4-fluorophenyl)thio)-5-(2-methoxyethoxy)-7-(2-(4-methylpiperazin-1-yl)ethoxy)quinazoline]"
,< 500 nM,1000 to 10000 nM,"CN(C)CCC1CCN(c2cc(OC3CCOCC3)c3c(Nc4nc(C(F)(F)F)cs4)ncnc3c2)CC1 [Example 2.44, N-(7-(4-(2-(dimethylamino)ethyl)piperidin-1-yl)-5-((tetrahydro-2H-pyran-4-yl)oxy)quinazolin-4-yl)-4-(trifluoromethyl)thiazol-2-amine]"
